The METLIN SMRT retention time set (Domingo-Almenara et al. 2019)

Assay: gradient 5% acetonitrile 3 min, to 50% in 2 min, to 85% in 15 min, held 3 min, 100 µL/min
Conditions: column: Zorbax Extend-C18 2.1 x 50 mm; eluents: water / acetonitrile, 0.1% formic acid
Outline: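 A Zorbax Extend-C18 column (2.1 × 50 mm, 1.8 μm) run at 100 μL/min with water and acetonitrile, both containing 0.1% formic acid, separated mixtures of ~100 pure standards. The HPLC was coupled to a quadrupole time-of-flight mass spectrometer operated in positive and negative ionization mode, with dead and dwell volumes of 40 μL and 900 μL. Each retention time was taken from a computationally picked adduct peak that was then manually inspected.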
Compound `CCN1C(=O)c2cccnc2Sc2cc(NC(=O)c3ccc4c(c3)OCO4)ccc21` has an RP-LC retention time of 802 s.
For `COc1cccc2c(C)nc(NC3=NCN(CC4CCCO4)CN3)nc12` (centres undefined), the RP-LC retention time was 627 s.
`O=C(Nc1ccc(F)c(Cl)c1)Nc1nccn(-c2ccc3c(c2)CCC3)c1=O` showed an RP-LC retention time of 1180 s.
Work on `CCc1ccc(-c2noc(CN3C(=O)COc4cc(C)ccc43)n2)cc1` yielded an RP-LC retention time of 1170 s.
Work on `Cc1noc(C)c1S(=O)(=O)NCC(c1cccnc1)c1cn(C)c2ccccc12` (centres undefined) yielded an RP-LC retention time of 700 s.
Compound `CC(C)(C)C(=O)Oc1ccc(S(=O)(=O)Nc2ccccc2C(=O)NCC(=O)O)cc1` has an RP-LC retention time of 961 s.
With `O=S(=O)(c1ccc2c(c1)CCC2)N1CCCC1c1noc(CO)n1` (centres undefined) the RP-LC retention time was 779 s.
`CCCC1O[C@@H]2C[C@H]3[C@@H]4CCC5=CC(=O)C=C[C@]5(C)[C@H]4[C@@H](O)C[C@]3(C)[C@]2(C(=O)CO)O1` (some centres undefined) gave an RP-LC retention time of 1000 s.
In the case of `O=C(c1ccc2c(c1)OCO2)N1CCC2(CC1)NC(=O)N(Cc1ccccc1)C2=O`, the RP-LC retention time is reported as 760 s.
For `COc1ccc(CNC(=O)NC2CCN(c3ccc(F)c(C)c3)C2=O)cc1` (centres undefined), the RP-LC retention time was 783 s.
Work on `Cc1cc(=O)n(CC(=O)Nc2cccc(C#N)c2)c(N2CCc3ccccc3C2)n1` yielded an RP-LC retention time of 772 s.
Compound `CCc1ccc(N2C(=O)N(CC(=O)N3CCOc4ccc(C)cc43)C3CS(=O)(=O)CC32)cc1` (centres undefined) has an RP-LC retention time of 966 s.
For `Cc1ccccc1-n1c(Cn2nc(-c3cccc(O)c3)c3c(N)ncnc32)nc2cccc(C)c2c1=O`, the RP-LC retention time was 778 s.
`CCNC(=O)N1CCc2c(c(-c3nc(Cc4ccccc4)no3)nn2C)C1` showed an RP-LC retention time of 742 s.
Work on `CCCCNc1c(C(=O)OC)c(=O)[nH]c2c(Cl)cccc12` yielded an RP-LC retention time of 783 s.
`COc1ccc(NC(=O)C2CC(=O)N(c3ccc4oc(C)nc4c3)C2)cc1Cl` (centres undefined) showed an RP-LC retention time of 742 s.
Compound `CCOc1ccc(-c2noc(Cn3c(=O)n(-c4ccccc4C)c(=O)c4sccc43)n2)cc1OC` has an RP-LC retention time of 960 s.
In the case of `COC(=O)COC(=O)c1cn(-c2ccc(OC)cc2)c(=O)c2ccccc12`, the RP-LC retention time is reported as 924 s.
`CS(=O)(=O)N1CCC(C(=O)Nc2cccc(C(F)(F)F)c2)Oc2ccc(Cl)cc21` (centres undefined) gave an RP-LC retention time of 1060 s.
With `Cc1ccc(NC(=O)NCCC2CCN(S(=O)(=O)c3ccc(F)cc3)CC2)cc1` the RP-LC retention time was 925 s.
`Cc1nc(-c2csc(S(=O)(=O)N3CCCC(C(=O)Nc4cccc(Cl)c4C)C3)c2)no1` (centres undefined) gave an RP-LC retention time of 1020 s.
In the case of `Cn1cc(-c2nnc(SCC(=O)N3CCc4ccccc43)n2C)c(-c2ccccc2)n1`, the RP-LC retention time is reported as 766 s.
Compound `O=C(Nc1cnc(-c2cccnc2)nc1)C1CCCC1` has an RP-LC retention time of 654 s.
For `CC(C)(C)CC(=O)N1CCc2nc(-c3ccccc3)ncc2C1`, the RP-LC retention time was 934 s.
For `CN(C)c1ccc(C(=O)N2CCCC2c2nc(-c3ccc(F)cc3F)no2)cc1` (centres undefined), the RP-LC retention time was 984 s.
In the case of `Clc1cccc(-c2nnc(-c3nc(N4CCOCC4)c4ccccc4n3)o2)c1`, the RP-LC retention time is reported as 973 s.
With `CCn1ncc(Cl)c1C(=O)N1CCCC1c1ccc(F)cc1` (centres undefined) the RP-LC retention time was 912 s.
For `COc1ccccc1-c1noc(Cn2ccn3nc(-c4cccc5ccccc45)cc3c2=O)n1`, the RP-LC retention time was 1070 s.
Work on `Cc1nn(C(C)C(=O)NCc2ccccn2)c(=O)c2c(C)n(-c3ccccc3)nc12` (centres undefined) yielded an RP-LC retention time of 638 s.
Compound `O=C(c1ccc(F)c(Cl)c1)N1CCC(n2c(-c3ccoc3)nc3cccnc32)C1` (centres undefined) has an RP-LC retention time of 735 s.
For `CC(=O)N1CCc2sc(S(=O)(=O)N3CCN(c4ccc(C)cc4)CC3)cc2C1`, the RP-LC retention time was 926 s.
`Cc1nc2ccn(Cc3ccco3)c(=O)c2cc1C(=O)NC1CCCC1` gave an RP-LC retention time of 723 s.
For `Cc1ccc(-c2nc3cnccn3c2NCCC(=O)NCc2ccc(C)o2)cc1`, the RP-LC retention time was 710 s.
`CCCn1c(=O)c(C)nc2cc(-c3noc(/C=C/c4cccs4)n3)ccc21` gave an RP-LC retention time of 792 s.
`CCN(CC)CCNS(=O)(=O)c1cc(-c2[nH]ncc2C(=O)N2CCCC2)oc1C` gave an RP-LC retention time of 565 s.
Compound `Cc1nnc(NC(=O)CCn2cnc3ccccc3c2=O)s1` has an RP-LC retention time of 588 s.
Compound `O=C(CN1C(=O)NC2(CCCCC2)C1=O)Nc1cccc(Cl)c1` has an RP-LC retention time of 815 s.
In the case of `Cc1ccn2c(Nc3ccccc3C)c(-c3ccc(Cl)cc3)nc2c1`, the RP-LC retention time is reported as 810 s.
With `CCNC(=O)C1CCCN(c2nc3ncn(CC(=O)N4CCc5ccccc5C4)c(=O)c3s2)C1` (centres undefined) the RP-LC retention time was 690 s.
Compound `O=C(C1CCCN(c2ncnc3c2nc2n3CCCCC2)C1)N1CCN(c2ccc(Cl)cc2)CC1` (centres undefined) has an RP-LC retention time of 928 s.
`CCCNC(=O)CCc1nc2ccccc2n(CC(=O)Nc2ccccc2C(=O)OC)c1=O` gave an RP-LC retention time of 843 s.
Compound `CN1C(=O)C2CCCCN2c2ccc(C(=O)NCCCN3CCN(C4CCCCC4)CC3)cc21` (centres undefined) has an RP-LC retention time of 594 s.
In the case of `COc1ccc(CN2C=C(C(=O)OCc3noc(-c4ccco4)n3)C(C)=NS2(=O)=O)cc1`, the RP-LC retention time is reported as 1000 s.
`Cc1nn(-c2ccc(Cl)cc2)c(C)c1S(=O)(=O)N1CCC(C(=O)N2CCN(C)CC2)CC1` showed an RP-LC retention time of 642 s.
With `CCCn1cc(CCNS(=O)(=O)c2ccccc2)c2cccnc21` the RP-LC retention time was 786 s.
`O=C(COc1ccc(Cl)cc1Cl)N1CCN(c2ccc3nncn3n2)CC1` gave an RP-LC retention time of 687 s.
For `CCOC(=O)c1ccc(NC(=O)c2c(C)oc3nc(C)nc(N4CCCC4)c23)cc1`, the RP-LC retention time was 848 s.
Work on `CCN1CCN(CCNC(=O)c2sc3cc(Cl)ccc3c2OC)CC1` yielded an RP-LC retention time of 636 s.
In the case of `CCCS(=O)(=O)NCCN1C(=O)C2(CCCCC2)C1c1ccccc1` (centres undefined), the RP-LC retention time is reported as 898 s.
Compound `O=C(NCC1CC1)c1ccc(NC(=O)C2CCC2)cc1N1CCOCC1` has an RP-LC retention time of 709 s.
For `Cc1ccc(OCc2nc(-c3ccc(N4CCSCC4)nc3)no2)cc1`, the RP-LC retention time was 1180 s.
In the case of `CCc1ccccc1NC(=O)C1CCN(S(=O)(=O)c2ccc3c(c2)NC(=O)C(CC)O3)CC1` (centres undefined), the RP-LC retention time is reported as 893 s.
For `O=C(Nc1cccc(F)c1)C1CCN(S(=O)(=O)c2cc(-c3noc(C4CCC4)n3)cs2)CC1`, the RP-LC retention time was 1110 s.
`Cc1nc2ccccc2c(=O)n1-c1ccc(NC(=O)C2CCN(S(=O)(=O)N3CCCC3)CC2)cc1` gave an RP-LC retention time of 778 s.
With `CCOC(=O)C1=C(CNc2ccc(C(F)(F)F)cc2)NC(=O)NC1c1ccc2c(c1)OCO2` (centres undefined) the RP-LC retention time was 966 s.
For `CCOC(=O)c1ccc(NC(=O)COc2cccc3ccc(N4CCOCC4)nc23)cc1`, the RP-LC retention time was 654 s.
`Cc1ccc(-c2nnc(-c3cccc(S(=O)(=O)N4CCSCC4)c3)o2)cc1` showed an RP-LC retention time of 1100 s.
For `CCCn1c(=O)c(C)nc2cc(-c3noc(C4CC(=O)N(c5ccc(C)cc5)C4)n3)ccc21` (centres undefined), the RP-LC retention time was 927 s.
For `O=S(=O)(c1ccccc1)N1CC(c2nnc(-c3ccncc3)o2)C2(CCOCC2)C1` (centres undefined), the RP-LC retention time was 660 s.
With `CC1CCc2nc3ncn(CC(=O)Nc4ccc(Cl)cc4F)c(=O)c3cc2C1` (centres undefined) the RP-LC retention time was 858 s.
Compound `Cc1ccc(NC(=O)C2CCCN(c3nnc(C)c4c(C)n(-c5ccccc5)nc34)C2)cc1C` (centres undefined) has an RP-LC retention time of 820 s.
Compound `CCNC(=O)C1CCCN(c2nc3ncn(CC(=O)Nc4ccc(Cl)cc4)c(=O)c3s2)C1` (centres undefined) has an RP-LC retention time of 704 s.
Compound `COC(=O)C1=CN(c2cc(Cl)c(OC)cc2OC)c2ccc(F)cc2S1(=O)=O` has an RP-LC retention time of 914 s.
`CN(c1ccccc1)c1nc(=O)n(CC(=O)Nc2ccc3c(c2)OCO3)c2ccccc12` gave an RP-LC retention time of 800 s.
`COc1ccc(-c2cn3c(n2)N(C(=O)Cn2ccnc2)CCC3)cc1` gave an RP-LC retention time of 593 s.
For `O=C(NCc1ccco1)Nc1cccc(-c2noc(C3CCC3)n2)c1`, the RP-LC retention time was 912 s.
Compound `COc1ccc(C)cc1NC(=O)N1CCN(c2ccc(-c3ccc4c(c3)OCO4)nn2)CC1` has an RP-LC retention time of 659 s.
In the case of `COc1ccccc1-c1noc(-c2cn(C)c3ccc(F)cc3c2=O)n1`, the RP-LC retention time is reported as 744 s.
Compound `COc1ccc(Cc2noc(Cc3nnc(-c4ccc(Cl)cc4)o3)n2)cc1` has an RP-LC retention time of 1010 s.
In the case of `COc1ccc(-c2noc(-c3ccc(N4CCN(C(=O)c5ccco5)CC4)nc3)n2)cc1`, the RP-LC retention time is reported as 989 s.
Compound `Cn1ccc2cc(S(=O)(=O)N3CCCC(C(=O)NCCCN4CCCCCC4)C3)ccc21` (centres undefined) has an RP-LC retention time of 668 s.
With `CC1=C(C(=O)NCCCOC(C)C)C2(CCN(Cc3ccccc3)CC2)OC1=O` the RP-LC retention time was 644 s.
Compound `CC(C)CC(=O)Nc1ccc(-c2nc(-c3ccc(F)cc3)no2)cc1` has an RP-LC retention time of 1170 s.
`CN1CCCc2cc(C(CNC(=O)C(=O)NCc3ccc4c(c3)OCO4)N3CCCC3)ccc21` (centres undefined) gave an RP-LC retention time of 709 s.
Work on `O=C(CSc1nnc2c3sc(N4CCCC4)nc3ncn12)Nc1ccc2c(c1)OCO2` yielded an RP-LC retention time of 766 s.
`Cn1cc(C(=O)NCc2cc(F)cc(F)c2)c(S(=O)(=O)N2CCSCC2)n1` gave an RP-LC retention time of 1010 s.
With `CCOC(=O)c1c(C)[nH]c(C(=O)N2CCC(C(C)C(=O)NCc3ccc(OCC)cc3)CC2)c1C` (centres undefined) the RP-LC retention time was 860 s.
Compound `O=C(NCCOc1ccc2nnc(-c3ccccc3Cl)n2n1)c1cccs1` has an RP-LC retention time of 664 s.
Compound `O=S(=O)(Cc1ccccc1)N1CCC(OC2CCN(Cc3cccnc3)CC2)CC1` has an RP-LC retention time of 615 s.
Work on `CC1(C(=O)NC2CCCCCCC2)CN(S(C)(=O)=O)CC(=O)N1c1ccccc1Cl` (centres undefined) yielded an RP-LC retention time of 924 s.
In the case of `COc1ccc(C(=O)N2C[C@@H](Oc3cccnc3)C[C@H]2C(=O)NC2CC2)cn1`, the RP-LC retention time is reported as 562 s.
In the case of `O=C(Cc1c[nH]c2ncccc12)NCc1ccc(C(F)(F)F)cc1`, the RP-LC retention time is reported as 677 s.
For `CC(C)n1nnc2cc(C(=O)N(C)CC(=O)Nc3ccc(F)cc3F)ccc21`, the RP-LC retention time was 744 s.
`CC(C)Oc1ccc(-c2noc(CN3N=NC4C(=O)N(c5ccc6c(c5)CCC6)C(=O)C43)n2)cc1` (centres undefined) showed an RP-LC retention time of 1180 s.
